Values after ≈ are worked out from the molar mass of the structure shown.
Tests used:
[1] = test system: T1, Cryptococcus neoformans (H99); assay: microbe, parasite or virus in culture; design: CLSI M27-A3 broth microdilution in RPMI 1640 at 37 C, growth inhibition of C. neoformans (MIC)
T1 construct: H99
Protocol: In vitro antifungal activities of FK506, FK520, and analogs were assessed in RPMI 1640 (Sigma-Aldrich) for all strains tested. MICs/minimum effective concentrations (MECs) for each drug were measured using modified Clinical and Laboratory Standards Institute (CLSI) M38-A2 and M27-A3 standard in vitro antifungal susceptibility protocols. Broth microdilution assays for MIC/MEC assessment were performed as described previously ([33]). All antifungal assays with C. neoformans were performed at 37°C. Antifungal susceptibility testing for C. albicans was performed in the presence of a uniform 1 μg/mL concentration of fluconazole to sensitize the organism to calcineurin inhibition. MICs/minimum effective concentrations (MECs) were determined for each of the novel analogs against the three major human fungal pathogens, A. fumigatus, C. neoformans, and C. albicans. […] Thus, analogs of FK506 and FK520 can tolerate up to 100-fold reduction in antifungal activity and still be considered for in vivo testing. For C. neoformans, MICs were the most uniform and ranged from 0.2 to 2 μg/mL, which is between 4- and 40-fold reduced for antifungal activity. C. albicans MICs ranged from 0.2 to 6.25 μg/mL, which is between 10- and 312.5-fold reduced for activity. Despite being one of the most difficult to treat fungal infections, all six analogs were active against A. fumigatus with MECs ranging from 1 to 2 μg/mL or a 62.5- to 125-fold reduction in activity.

FKBP12 = target: T2, FKBP12 (Candida albicans, UniProt C4YFI3+C4YS24+P28870); assay: BLI, compound-mediated ternary complex formation, […] compound; assay type: binding
T2 construct: gene RBP1; biotinylated (Avi-tagged) FKBP12; with CnA-CnB-calmodulin
T2 sequence (P28870 whole entry): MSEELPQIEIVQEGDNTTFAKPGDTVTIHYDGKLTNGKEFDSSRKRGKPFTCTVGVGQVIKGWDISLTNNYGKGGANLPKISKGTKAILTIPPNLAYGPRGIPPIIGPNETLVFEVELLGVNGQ
T2 sequence (C4YFI3 54-445): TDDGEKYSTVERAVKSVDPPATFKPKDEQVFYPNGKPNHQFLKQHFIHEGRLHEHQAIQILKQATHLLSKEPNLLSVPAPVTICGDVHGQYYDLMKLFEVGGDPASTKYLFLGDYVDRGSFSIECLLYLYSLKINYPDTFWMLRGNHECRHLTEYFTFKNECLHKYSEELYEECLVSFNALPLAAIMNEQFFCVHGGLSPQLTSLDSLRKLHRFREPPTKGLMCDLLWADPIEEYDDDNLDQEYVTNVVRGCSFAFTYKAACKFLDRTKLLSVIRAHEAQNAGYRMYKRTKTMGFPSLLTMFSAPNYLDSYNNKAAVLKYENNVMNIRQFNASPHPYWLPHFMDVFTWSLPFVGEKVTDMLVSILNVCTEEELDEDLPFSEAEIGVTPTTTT
T2 sequence (C4YS24 1-173): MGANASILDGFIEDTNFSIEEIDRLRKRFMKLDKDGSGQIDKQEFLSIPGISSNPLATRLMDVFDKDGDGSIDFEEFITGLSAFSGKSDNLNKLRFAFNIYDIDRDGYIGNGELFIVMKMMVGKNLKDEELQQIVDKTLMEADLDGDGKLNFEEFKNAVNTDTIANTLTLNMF
T2 sequence (P23286 whole entry partner): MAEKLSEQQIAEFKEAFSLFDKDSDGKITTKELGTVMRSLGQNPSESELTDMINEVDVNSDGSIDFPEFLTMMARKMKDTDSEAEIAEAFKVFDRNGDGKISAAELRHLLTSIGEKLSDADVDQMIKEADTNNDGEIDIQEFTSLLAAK

SMILES	MIC ([1]; Cryptococcus neoformans, read-out: MIC (μg/mL) against: / Cryptococcus neoformans (H99)^a)	BLI, compound-mediated ternary complex formation, 10 μM compound (FKBP12)	MIC (μg/mL) against: / Cryptococcus neoformans (H99)^a ([1]; inhibitor)
C=CC[C@@H]1/C=C(\C)C[C@H](C)C[C@H](OC)[C@H]2O[C@@](O)(C(=O)C(=O)N3CCCC[C@H]3C(=O)O[C@H](/C(C)=C/[C@@H]3CC[C@@H](O)[C@H](OC)C3)[C@H](C)[C@@H](O)C/C1=N/NC(C)=O)[C@H](C)C[C@@H]2OC [JH-FK-01, APX879]	1 µg/mL (≈ 1.16 µM)		
CC[C@@H]1/C=C(\C)C[C@H](C)C[C@H](OC)[C@H]2O[C@@](O)(C(=O)C(=O)N3CCCC[C@H]3C(=O)O[C@H](/C(C)=C/[C@@H]3CC[C@@H](O)[C@H](OC)C3)[C@H](C)[C@@H](O)CC1=O)[C@H](C)C[C@@H]2OC [FK520]		along with compounds FK506, APX879, FK520, JH-FK-02, and JH-FK-05	0.05 µg/mL (≈ 0.0631 µM)

Reference: paper PMC9239059, “Structure-Guided Synthesis of FK506 and FK520 Analogs with Increased Selectivity Exhibit In Vivo Therapeutic Efficacy against Cryptococcus” (mBio, 2022)
